Columns and labels:
[1] = tested on: anti-emetic power relative to apomorphine in dogs; assay: anti-emetic power relative to apomorphine in dogs by the method of Chen and Ensor (subcutaneous administration); assay type: in vivo; conditions: Canis lupus familiaris, sc, Table 1, s.c. 30 minutes before apomorphine 100 ug/kg s.c.
Experimental: (§1) The pharmacodynamic tests on the compounds of this invention, and particularly a study of their anti-emetic power have shown strong activity on the nervous system as apomorphine antagonists. […] In accordance with the above-mentioned procedures, the compounds of the invention were administered subcutaneously 30 minutes before the administration of apomorphine, which was administered subcutaneously in a dose of 100 ug/kg.

[2] = tested on: stereotypes induced by apomorphine; assay: potentiation of stereotypes induced by apomorphine in rats; assay type: in vivo; conditions: Rattus norvegicus, ip, Table 7, apomorphine 0.25 mg/kg, intraperitoneal
Experimental: The compound of Example 2 was tested against sulpiride for potentiation of stereotypes induced by apomorphine (0.25 mg/kg) in rats under intraperitoneal administration with the following results: […]

[3] = tested on: biting sterotypes induced by apomorphine; assay: potentiation of biting sterotypes induced by apomorphine in mice, Pedeson's method; assay type: in vivo; conditions: Mus musculus, ip, Table 6, apomorphine 10 mg/kg, interperitoneal
Experimental: The compounds were also tested for potentiation of biting sterotypes induced by apomorphine (10 (mg/kg) in mice, under interperitoneal administration in accordance with Pedeson's method in Brit J. Pharmacol. 1968, 34 (1), 219-220 with the following results: […]

[4] = tested on: anti-emetic power relative to apomorphine in dogs; assay: anti-emetic ED50 under oral administration (procedure of Example 29); assay type: in vivo; conditions: Canis lupus familiaris, Table 2
Experimental: as §1
Compounds SLC-036, 77205 and 77149 are disclosed in U.S. Pat. No. 4,172,143 for comparison purposes, as Examples 10, 33 and 37 therein. The results for those compounds are reported in Table IX of the '143 Patent and are believed to represent results from oral administration.
Pharmacological tests were carried out under oral administration to determine anti-emetic ED50 in accordance with the procedure of Example 29 with the following results: […]

[5] = acute toxicity in the mouse; conditions: in vivo
Excerpt: The acute toxicity of the compounds of the invention has been studied in the mouse. The LD50 's are set out in the following Table 3. […] This characteristic is highly desirable because the possibility of toxic effects due to the administration of therapeutic doses is thereby minimized.

solubility in water = assay type: physicochemical; conditions: crystals, base
[6] = tested on: chewing stereotypes induced by apomorphine; assay: antagonism to chewing stereotypes induced by apomorphine in rats, method of Janssen; assay type: in vivo; conditions: Rattus norvegicus, sc, Table 4, apomorphine 1.25 mg/kg
Experimental: The neurological activity of the compounds of the invention was compared to the activity of prior art compounds in U.S. Pat. No. 4,172,143 and with a standard in this field, Sulpiride, N-[(1-ethylpyrrolidinyl-2)methyl]-2-methoxy-5 sulphamoyl benzamide. The compounds were tested for antagonism to chewing stereotypes induced by apomorphine (1.25 mg/kg in rats, according to the method of Janssen in Arzn. Forsch. 1960-10, 1003-5, under subcutaneous administration and the results were as follows: […]

[7] = tested on: chewing stereotypes induced by dexamphetamine; assay: antagonism to chewing stereotypes induced by dexamphetamine in rats, Janssen's method; assay type: in vivo; conditions: Rattus norvegicus, sc, Table 5, dexamphetamine 10 mg/kg
Experimental: The compounds were also tested for antagonism to chewing stereotypes induced by dexamphetamine (10 mg/kg) in rats, by Janssen's method in Arzn. Forsch. 1961, 11, 932-938 under subcutaneous administration with the following results: […]

## CC[S+]([O-])c1cc(C(=O)NCC2CCCN2CC2CC2)c(OC)cc1N (centres unmarked) [Example 1, N-(1-cyclopropylmethyl 2-pyrrolidinylmethyl)-2-methoxy 4-amino 5-ethylsulphinyl benzamide]
[1]
  ED50: 0.0007 mg/kg

## CCS(=O)(=O)c1cc(C(=O)NCC2CCCN2CC2CC2)c(OC)cc1N (centres unmarked) [Example 2, N-(1-cyclopropyl-methyl-2-pyrrolidinyl-methyl)-2-methoxy-4-amino-5-ethylsulphonyl-benzamide]
[1]
  ED50: 0.0004 mg/kg
[2]
  ED50: 2.4 mg/kg
[3]
  ED50: 1.6 mg/kg
[4]
  ED50: 0.0009 mg/kg
[5]; I.V. (intravenous)
  LD50: 52.5 to 54.6 mg/kg
[5]; P.O. (oral)
  LD50: 1260 to 1320 mg/kg
[5]; ip, I.P. (intraperitoneal)
  LD50: 204 to 220 mg/kg
[5]; sc, S.C. (subcutaneous)
  LD50: 380 to 396 mg/kg

## CNS(=O)(=O)c1cc(C(=O)NCC2CCCN2CC2CC2)c(OC)cc1N (centres unmarked) [Example 3, N-(1-cyclopropylmethyl 2-pyrrolidinylmethyl)-2-methoxy 4-amino 5-methylsulphamoyl benzamide]
[1]
  ED50: 0.0004 mg/kg

## COc1cc(S(N)(=O)=O)cc(C(=O)NCC2CCCN2CC2CC2)c1OC (centres unmarked) [Example 4, N-(1-cyclopropylmethyl-2-pyrrolidinylmethyl)-2,3-dimethoxy-5-sulphamoyl benzamide]
[1]
  ED50: 0.0022 mg/kg
Solubility in water
  solubility in water: insoluble
[5]; I.V. (intravenous)
  LD50: 60 to 64.5 mg/kg
[5]; P.O. (oral)
  LD50: 2280 mg/kg
[5]; ip, I.P. (intraperitoneal)
  LD50: 372 to 403 mg/kg
[5]; sc, S.C. (subcutaneous)
  LD50: 930 mg/kg

## CNS(=O)(=O)c1cc(OC)c(OC)c(C(=O)NCC2CCCN2CC2CC2)c1 (centres unmarked) [Example 5, N-(1-cyclopropylmethyl 2-pyrrolidinylmethyl)-2,3-dimethoxy 5-methylsulphamoyl benzamide]
[1]
  ED50: 0.0005 mg/kg

## COc1cc(S(N)(=O)=O)cc(C(=O)NCC2CCCN2CC2=CCCCC2)c1OC (centres unmarked) [Example 6, N-(1-cyclohexenyl-methyl-2-pyrrolidylmethyl)-2,3-dimethoxy 5-sulphamoyl benzamide]
[1]
  ED50: 0.0028 mg/kg
[3]
  ED50: 2.6 mg/kg
[5]; ip, I.P., at 240 mg/kg, read-out: 60% at 240 mg/kg (acute toxicity)
  mortality: 60%
[6]
  ED50: 40 mg/kg

## CCS(=O)(=O)c1cc(C(=O)NCC2CCCN2CC2CCCCC2)c(OC)cc1N (centres unmarked) [Example 8, N-(1-cyclohexylmethyl-2-pyrrolidinyl-methyl)-2-methoxy-4-amino-5-ethylsulphonyl-benzamide]
[1]
  ED50: 0.002 mg/kg
[7]
  ED50: 15.4 mg/kg
[5]; I.V. (intravenous)
  LD50: 37 to 40.8 mg/kg
[5]; P.O. (oral)
  LD50: 348 to 380 mg/kg
[5]; ip, I.P. (intraperitoneal)
  LD50: 133 to 145 mg/kg
[5]; sc, S.C. (subcutaneous)
  LD50: 336 to 342 mg/kg
[6]
  ED50: 33 mg/kg

## CCS(=O)(=O)c1cc(C(=O)NCC2CCCN2CC2=CCCC2)c(OC)cc1N (centres unmarked) [Example 10, N-(1-cyclopentenylmethyl 2-pyrrolidinylmethyl)-2-methoxy 4-amino 5-ethylsulphonyl benzamide]
[1]
  ED50: 0.0013 mg/kg
[7]
  ED50: 14 mg/kg
[5]; I.V. (intravenous)
  LD50: 41.8 to 42 mg/kg
[5]; P.O. (oral)
  LD50: 980 to 990 mg/kg
[5]; ip, I.P. (intraperitoneal)
  LD50: 204 to 212 mg/kg
[5]; sc, S.C. (subcutaneous)
  LD50: 330 to 360 mg/kg

## CCS(=O)(=O)c1cc(C(=O)NCC2CCCN2CC2=CCCCC2)c(OC)cc1N (centres unmarked) [Example 11, N-[1-(1-cyclohexenylmethyl)-2-pyrrolidinylmethyl]-2-methoxy 4-amino 5-ethylsulphonyl benzamide, phosphate]
[1]
  ED50: 0.00057 mg/kg
[7]
  ED50: 5.4 mg/kg
[5]; I.V. (intravenous)
  LD50: 29.5 to 31.8 mg/kg
[5]; P.O. (oral)
  LD50: 510 to 555 mg/kg
[5]; ip, I.P. (intraperitoneal)
  LD50: 180 to 181 mg/kg
[5]; sc, S.C. (subcutaneous)
  LD50: 343 to 360 mg/kg
[6]
  ED50: 13.7 mg/kg

Source: patent publication US4816471A, “Substituted heterocyclic benzamides, methods of preparing them and their application as anti-emetics” (Societe d'Etudes Scientifiques et Industrielles de …, priority 1978, dated 1989)
